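Following 48 hours of exposure in 96-well plates, responses at five concentrations were used to interpolate endpoints linearly. GI50 is the concentration that inhibits growth by half. TGI is the concentration that stops growth completely.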
How the values were obtained:
Assay in all cases: inhibition of tumour cell growth, NCI panel, 48 h
[1] = tested on: ACHN renal
[2] = tested on: COLO 205 colon
[3] = tested on: HS 578T breast
[4] = tested on: HT29 colon
[5] = tested on: IGROV1 ovarian
[6] = tested on: M14 melanoma
[7] = tested on: MDA-MB-231 breast
[8] = tested on: RPMI-8226 leukemia
[9] = tested on: SN12C renal
[10] = tested on: MALME-3M melanoma

Row | Structure (SMILES) | GI50 [1] [µM] | TGI [1] [µM] | GI50 [2] [µM] | TGI [2] [µM] | GI50 [3] [µM] | TGI [3] [µM] | GI50 [4] [µM] | TGI [4] [µM] | GI50 [5] [µM] | TGI [5] [µM] | GI50 [6] [µM] | TGI [6] [µM] | GI50 [7] [µM] | TGI [7] [µM] | GI50 [8] [µM] | TGI [8] [µM] | GI50 [9] [µM] | TGI [9] [µM] | TGI [10] [µM]
1 | Cc1ccc(C(=O)N=Nc2c(O)[nH]c3ccc(Cl)cc23)cc1 | > 50 | > 50 | 19 | > 50 | > 50 | > 50 | 19.8 | > 50 | 36.6 | > 50 | 22.7 | > 50 | 18.7 | > 50 | 5.74 | > 50 | 8.7 | 17.8 | –
2 | Clc1cccc2c1OCC1C(c3ccccc3)=NN(c3ccccc3)C21 (centres undefined) | – | > 100 | – | > 100 | – | – | – | > 100 | – | > 100 | – | – | – | – | – | > 100 | – | – | > 100
3 | O=C(Sc1sc(=S)sc1SC(=O)c1ccccc1)c1ccccc1 | – | > 100 | – | > 100 | – | – | – | > 100 | – | > 100 | – | > 100 | – | – | – | > 100 | – | > 100 | > 100
4 | C/C=C1\CCC2c3[nH]c4ccccc4c3CCN2C1 (centres undefined) | – | > 100 | – | – | – | – | – | > 100 | – | > 100 | – | 75.8 | – | – | – | – | – | > 100 | > 100
5 | COc1cc(NC(C)CCCN)c2ncccc2c1Sc1ccc(Cl)cc1 (centres undefined) | 1.79 | 3.22 | 1.67 | 3.03 | 1.67 | 3.85 | 1.9 | 3.5 | 2.31 | 5.31 | 1.77 | 3.34 | 1.42 | 2.86 | – | – | 1.62 | 3.06 | –
6 | Cc1cc2c(=O)cc(-c3ccc(F)cc3)oc2c(C(=O)O)c1C | – | > 100 | – | > 100 | – | – | – | > 100 | – | > 100 | – | > 100 | – | – | – | > 100 | – | > 100 | > 100
7 | CC/C(CC(=O)CCC(=O)Nc1ccc(C)c(C)c1)=N\NC(=O)C(N)=O | – | > 100 | – | > 100 | – | – | – | > 100 | – | > 100 | – | > 100 | – | – | – | > 100 | – | > 100 | > 100
8 | CC12CC(Sc3ccccc3N1)c1ccccc1O2 (centres undefined) | – | 31 | – | 29.9 | – | – | – | 35 | – | 48.6 | – | 37.6 | – | – | – | 48 | – | 36 | 30.1
9 | CCN(CC)CCC(=O)/C=C/c1ccc(C)cc1 | – | 27.5 | – | 16.8 | – | – | – | 33 | – | 30 | – | 26.8 | – | – | – | > 100 | – | 24.8 | 34
10 | Cc1cn2c(/C=N/N=C(N)N)c(-c3ccsc3)nc2s1 | 3.08 | 13.6 | 3.18 | 15 | 13 | 37.8 | 18.6 | > 100 | 14.9 | 46.3 | 11.5 | 37.3 | 3.94 | 17.1 | 3.69 | 16 | 2.27 | 10.9 | –

From PubChem BioAssay (NCI)
